One series in a line: in vitro. Particulars: dog, CC50 (50% cytotoxicity concentration), MDCK cells, WST-1 assay.
For the next series, the system named is A/WSN/1933 (H1N1) virus. Kind of series: microbe, parasite or virus in culture. In kind it is cell-based, influenza A virus. Particulars: for IC50 / IC90: Influenza A virus.
The conditions of series [1]: in vivo; cited from earlier work.
Series [2] has as its system recombinant wild-type WSN (rWSN). Put plainly: microbe, parasite or virus in culture. In kind it is cell-based. Particulars: Influenza A virus, H1N1 / WSN, read-out: IC50 (μM) WT rWSM (H1N1).
For a further series, the target named is NP (Influenza A virus, UniProt P15682). In kind it is cell-based, A/WSN/1933 (H1N1).
Sequence of NP (P15682 whole entry, looked up): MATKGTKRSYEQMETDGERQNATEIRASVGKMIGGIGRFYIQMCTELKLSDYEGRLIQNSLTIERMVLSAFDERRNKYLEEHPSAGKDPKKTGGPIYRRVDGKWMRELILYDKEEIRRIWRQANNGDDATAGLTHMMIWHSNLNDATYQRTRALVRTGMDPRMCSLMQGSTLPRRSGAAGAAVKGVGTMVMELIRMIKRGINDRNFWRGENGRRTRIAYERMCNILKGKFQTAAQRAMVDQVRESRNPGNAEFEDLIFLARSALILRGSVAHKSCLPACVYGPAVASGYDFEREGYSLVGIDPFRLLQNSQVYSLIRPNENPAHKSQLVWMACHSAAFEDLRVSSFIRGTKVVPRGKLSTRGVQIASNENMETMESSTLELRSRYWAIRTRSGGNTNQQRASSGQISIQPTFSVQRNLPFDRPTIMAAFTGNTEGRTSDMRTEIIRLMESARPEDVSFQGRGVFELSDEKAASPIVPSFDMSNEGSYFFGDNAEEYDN
Series [3] addresses vRNA-induced NP oligomerization (Influenza A virus, UniProt P15682). In kind it is biochemical.
For the next series, the system named is A/England/1/1956 (H11N6). Kind of series: microbe, parasite or virus in culture. In kind it is cell-based. Particulars: Influenza A virus, MDCK.
A further series is described as follows: in vivo. Particulars: Balb/c, mouse, 10 mg/kg.
Series [4] relates to virus life cycle in MDCK cells. It counts as cell-based.
The next series concerns the target CRM1 binding to NP (Influenza A virus, UniProt P15682). In kind it is biochemical.
Series [5] concerns A/Ck/yamaguchi/7/2004 (H5N1). Kind of series: microbe, parasite or virus in culture. Particulars: Influenza A virus, H5N1, MDCK. In kind it is cell-based.
For another series, the target named is vRNP activity (Influenza A virus, UniProt P15682). In kind it is cell-based, influenza A/WSN/1933 (H1N1).
Sequence of vRNP activity (P15682 whole entry, looked up): as above
The subject of another series is A/Tex/131 (H3N2). Kind of series: microbe, parasite or virus in culture. It counts as cell-based. Particulars: Influenza A virus, H3N2, MDCK.
For series [6], the system named is nuclear export of NP-mRFP-Flag. Kind of series: in vitro nuclear export assay, digitonin-permeabilized HeLa cells. It counts as cell-based. Particulars: with HeLa cell lysate, 42% with lysate alone. As for the experimental part: HeLa cells were attached to glass cover slips at 37°C for 24 h and then transiently transfected with NP-mRFP-Flag/pCAGGS. After 48 h, cells were washed twice with cold transport buffer (20 mM HEPES (pH 7.4), 110 mM potassium acetate, 2 mM magnesium acetate, 1 mM EGTA (pH 7.4), 2 mM DTT, 1 μg/mL aprotinin, 1 μg/mL leupeptin, and 1 μg/mL pepstatin) and permeabilized with digitonin (50 μg/mL; Sigma) in transport buffer for 5 min on ice. The cells were then washed with cold transport buffer and incubated with apyrase (10 U/mL; Sigma) for 5 min on ice. After washing twice with cold transport buffer, the cells were incubated in cold transport buffer for 10 min on ice before addition of a the reaction mixture (40 μg HeLa cell lysate, 10 mg/mL bovine serum albumin (BSA), 10 mM ATP, 5 mM creatine phosphate, 0.64 U creatine kinase) containing (or not) the test compounds. The mixture was the incubated at 30°C for 1 h. After washing three times with cold transport buffer, mRFP fluorescence was observed under a confocal laser scanning microscope (FV 1000; Olympus). The fluorescence intensity in the nuclei was analyzed with MetaMorph software (Molecular Devices Inc., Downingtown, PA). The fluorescence intensity of NP-mRFP-Flag was quantified in >100 nuclei in each of three independent experiments.

The next series deals with A/Germany/N/1949 (H10N7). Put plainly: microbe, parasite or virus in culture. It counts as cell-based. Particulars: Influenza A virus, MDCK.
The test system of series [7] is A/Alberta/60/1976 (H12N5). Put plainly: microbe, parasite or virus in culture. In kind it is cell-based. Particulars: Influenza A virus, MDCK.
Another series has as its system viral protein expression. It counts as cell-based.
For series [8], the system named is A/Ontario/6118/1968 (H8N4). Kind of series: microbe, parasite or virus in culture. Particulars: Influenza A virus, H8N4, MDCK. It counts as cell-based.
For another series, the target named is NP-Flag (Influenza A virus, UniProt P15682). In kind it is binding.
Sequence of NP-Flag (P15682 whole entry, looked up): as above
A further series has as its target NP-RNA interaction (Influenza A virus, UniProt P15682). In kind it is biochemical.
A further series concerns A/Udorn/307/1972 (H3N2). Kind of series: microbe, parasite or virus in culture. Particulars: Influenza A virus, H3N2, MDCK. It counts as cell-based.
In series [9] the test system is A/California/7/2009 virus (H1N1). Put plainly: microbe, parasite or virus in culture. It counts as cell-based. Particulars: Influenza A virus, H1N1, MDCK.
For a further series, the target named is NP-NP interaction (Influenza A virus, UniProt P15682). In kind it is biochemical.
Sequence of NP-NP interaction (P15682 whole entry, looked up): as above
The test system of series [10] is influenza A/WSN/1933 (H1N1) virus. Details: species or system Balb/c mice. Particulars: mouse, in vivo.
Series [11] concerns Influenza A/WSN/1933 (H1N1) virus. It counts as cell-based.
A further series deals with A/Anhui/1/2013(H7N9). Put plainly: microbe, parasite or virus in culture. Particulars: Influenza A virus, H7N9, MDCK. It counts as cell-based.
The subject of series [12] is vRNA encoding the PB2 subunit. It counts as cell-based, A/WSN/1933 (H1N1).
For series [13], the system named is A/Astrakhan/263/1982 (H14N15). Put plainly: microbe, parasite or virus in culture. In kind it is cell-based. Particulars: Influenza A virus, MDCK.
The conditions of series [14]: mouse plasma.
The test system of series [15] is A/Massachusetts/3740/1965 (H6N2). Kind of series: microbe, parasite or virus in culture. Particulars: Influenza A virus, H6N2, MDCK. In kind it is cell-based.
The mark [16] stands for this setting: MDCK, read-out: IC50 (SAR analysis of RK424).

Molecules are shown by their SMILES. Where two headings read alike, the source gives them in different places.

Sequence of CRM1 binding to NP (P15682 whole entry, looked up): as above
Sequence of vRNA-induced NP oligomerization (P15682 whole entry, looked up): as above
Sequence of NP-RNA interaction (P15682 whole entry, looked up): as above

Broadly, the CC50 is the concentration at which the toxic effect on the cells reaches its halfway point. High values mean lower toxicity to the cells, low ones greater toxicity to the cells. For the compound `NC(=O)c1cc(-c2ccc(-c3ccccc3)cc2)nc2ccccc12` [Analog #1], the CC50 in the series “in vitro” was greater than 10 µM. Moreover, the “antiviral effect relative to RK424 (SAR, in words)” value in the series with A/WSN/1933 (H1N1) virus is listed as “partial reduction in the antiviral effect”. Besides, the IC50 with A/WSN/1933 (H1N1) virus (setting [16]) stood at 10.1 ± 2.07 µM.
The corresponding values for `O=C(O)c1cc(N2CCN(c3ccccc3)CC2)nc2ccccc12` [Analog #2] are greater than 10 µM, “complete loss of antiviral activity” and greater than 30 µM.
The corresponding values for `O=C(O)c1ccnc(-c2ccc(-c3ccccc3)cc2)c1` [Analog #3] are greater than 10 µM, “complete loss of antiviral activity” and greater than 30 µM.
For `O=C(O)c1cc(-c2ccc(Oc3ccccc3)cc2)nc2ccccc12` [Analog #4], the cytotoxic concentration (CC50) in the series “in vitro” is greater than 10 µM. The “antiviral effect relative to RK424 (SAR, in words)” value in the series on A/WSN/1933 (H1N1) virus is given as “antiviral effect comparable with that of RK424”. For the same compound, the IC50 with A/WSN/1933 (H1N1) virus (setting [16]) turned out to be 0.43 ± 0.15 µM.
As to `NC(=O)c1nc(F)c[nH]c1=O` [Analog T-705, favipiravir], in series [1], the “recovery from morbidity, of that of the negative control group” value is 20% and the “viral titers in the lung” value is 3.50 log10 PFU/mL.
Take `Cc1onc(-c2ccccc2)c1C(=O)N1CCN(c2ccc([N+](=O)[O-])cc2Cl)CC1` [Nucleozin, nucleozin, reference compound]: the IC50 in series [2] worked out at 0.2 ± 0.03 µM.
As usually defined, the Vd is the apparent volume that relates the amount in the body to the concentration in plasma or blood. Low readings indicate little distribution into tissue, high ones wide distribution into tissue. One may read the Cmax as the highest concentration seen after dosing. As to `O=C(O)c1cc(-c2ccc(-c3ccccc3)cc2)nc2ccccc12` [RK424], the “NP localization in virus-infected HeLa cells” value on NP is given as “nuclear rather than cytoplasmic localization of NP”. The “rate of NP oligomerization” value in series [3] was “dose-dependent reduction in the rate of oligomerization”. In “in vitro”, this compound yielded a CC50 of no less than 50 µM. The IC50 in the series on A/England/1/1956 (H11N6) was found to be 0.57 ± 0.16 µM; in [5], 0.57 ± 0.04 µM; with A/Tex/131 (H3N2), 0.59 ± 0.13 µM; in the series with A/Germany/N/1949 (H10N7), 0.58 ± 0.14 µM; in series [2], 0.38 ± 0.04 µM; in [7] it was 0.62 ± 0.23 µM. Further, the IC50 in series [8] stood at 0.49 ± 0.04 µM; in the series with A/Udorn/307/1972 (H3N2), 0.49 ± 0.19 µM; in [9], 0.4 ± 0.07 µM; in the series on A/WSN/1933 (H1N1) virus (MDCK), 0.48 ± 0.19 µM; in the series with A/WSN/1933 (H1N1) virus (read-out: IC50 expressed as ng/mL), 163 ng/mL; with A/Anhui/1/2013(H7N9) it was 0.6 ± 0.12 µM. Further, the IC50 in series [13] was found to be 0.42 ± 0.06 µM; in series [15], 0.59 ± 0.09 µM. Moreover, the IC90 in the series with A/England/1/1956 (H11N6) amounted to 0.94 ± 0.02 µM; in series [5], 0.93 ± 0.02 µM; in the series with A/Tex/131 (H3N2), 0.98 ± 0.02 µM; in the series on A/Germany/N/1949 (H10N7), 1.09 ± 0.08 µM; in [7], 1.51 ± 0.87 µM; in series [8] it was 0.91 ± 0.02 µM. The IC90 with A/Udorn/307/1972 (H3N2) amounted to 1.23 ± 0.24 µM; in series [9] it was 0.88 ± 0.02 µM; with A/WSN/1933 (H1N1) virus (MDCK), 1.19 ± 0.36 µM; in the series on A/WSN/1933 (H1N1) virus (read-out: IC90 expressed as ng/mL), 390 ng/mL; in the series on A/Anhui/1/2013(H7N9), 1.14 ± 0.26 µM; in [13], 0.95 ± 0.01 µM. For the same compound, the IC90 in [15] amounted to 1.59 ± 0.12 µM. In the series “in vivo”, this compound showed a Vd of 0.583 L/kg. For the same compound, in the series “in vivo” (ip), the peak level (Cmax) was 39.2 µg/mL. Where the note is “Cmax 39200 ng/mL vs 162.7 ng/mL”, the “Cmax relative to the in vitro IC50 concentration” value is “more than 200 times”. Besides, where the note is “mice, 10 mg/kg”, the “bioavailability via the oral route relative to the intraperitoneal route, lower by” value was found to be 50%. The “free drug maximum concentration (Cfree max)” value (mice, intravenous 1 mg/kg, plasma) was determined as 11.4 ng/mL; the “free drug maximum concentration (Cfree max)” value (mice, oral route 10 mg/kg) is reported as 46.4 ng/mL; the “free drug maximum concentration (Cfree max)” value (mice, context intraperitoneal 10 mg/kg) was determined as 156.8 ng/mL. Also, the “antiviral effect by time of addition” value in series [4] was “prominent antiviral effect at an early stage in the virus life cycle”. Also, on CRM1 binding to NP, the “binding of CRM1 to NP-Flag beads” value is “binding was inhibited”. The “luciferase activity (vRNP activity)” value at vRNP activity was “notable and dose-dependent reduction in luciferase activity”. The “mRFP fluorescence intensity in the nucleus, % of buffer-treated cells” value is reported as 76% in series [6] (2 μM) and 134% in series [6] (10 μM). For the same compound, in the series with viral protein expression, the “viral protein expression (western blotting)” value is given as “reduction in viral protein expression”. Further, the “binding of wild-type NP-Flag to RK424 beads” value at NP-Flag was “bound to RK424 beads but not to control beads”. Moreover, the “RNA binding, less than control samples” value on NP-RNA interaction is given as roughly 50%. The “binding of NP-HA to NP-mRFP-Flag beads” value at NP-NP interaction is “inhibited the binding of NP-HA to NP-mRFP-Flag beads in a dose-dependent manner”. For the same compound, the “body weight change (in words)” value in [10] is “lost less weight”. Besides, the “reduction in the virus titer in the lung compared with controls” value in series [10] was ~ 2 log. For the same compound, the “virus titer in the lungs” value in series [10] is reported as 2.9×10^3 PFU/mL. Besides, the “plaque formation (number and size)” value in the series with A/WSN/1933 (H1N1) virus was “reduction in the number, but not the size, of viral plaques”. Besides, in series [11], the “effect on viral replication when added prior to virus inoculation” value is listed as “did not interfere with viral replication”. Besides, in [12], the “vRNA expression (FISH)” value was “significant reduction in vRNA expression”. For the same compound, in series [14], the “drug free from plasma protein” value worked out at 0.4%. Also, the plasma protein binding in series [14] (50 μM, 37°C 30 min) is 99.6%.
Consider `CCC(=C/[C@H](C)C/C=C/C(C)=C/[C@@H](C)C(=O)[C@@H](C)[C@H](O)[C@@H](C)C/C(C)=C/C(=O)O)/C=C/[C@@H]1OC(=O)C=C[C@@H]1C` [leptomycin B, reference compound], for which the “binding of CRM1 to NP-Flag beads” value at CRM1 binding to NP is listed as “binding was inhibited”. The “mRFP fluorescence intensity in the nucleus, % of buffer-treated cells” value in [6] (concentration not given) is on record as 97%.
Regarding `CCOC(=O)C1=C[C@@H](OC(CC)CC)[C@H](NC(C)=O)[C@@H](N)C1` [oseltamivir phosphate, reference compound], on NP, the “NP localization in virus-infected HeLa cells” value was “NP localized in both the nucleus and cytoplasm”. The “luciferase activity (vRNP activity)” value at vRNP activity is “did not significantly inhibit luciferase activity”. Besides, the “body weight change (in words)” value in series [10] is given as “no weight loss”.

The record behind these values is paper PMC4519322 (PLoS Pathogens, 2015).
